Experimental data: patent publication US11178823B2, “Systems and methods for using light energy to facilitate penetration of substances in plants” (priority 2014, dated 2021)

What was measured:
[1] = Uptake and phloem movement of fluorescent test substances applied onto lased citrus leaves (fluorescent microscopy); format: in vivo
Source text: To illustrate the effectiveness of the methods disclosed herein, a test substance was used to show the enhanced penetration through foliar application. Among test substances, phloem mobile compounds NBDG, a fluorescent analog of glucose (a natural sugar found in plants), and carboxyfluorescin-SE (a membrane permeable substance only fluorescent in live cells) were used in an experiment. Both substances were manually applied onto lased leaves (using a 13×39 dot indentation pattern 801) at a concentration of 5 mg/mL.
FIGS. 8A-8B were observed under fluorescent microscopy and FIG. 8B was taken 10 minutes after the application of 5 μL of NBDG.
Within 2 h, fluorescent NBDG was observed within the lateral veins of the lased leaves (shown in FIGS. 9A-9B) emerging from the application area. FIGS. 9A-9B are fluorescent micrographs of a portion of a lased citrus leaf. […] FIG. 9B is another image showing the NBDG in a minor veins 903 and main vein 905.
It should be appreciated that movement of the foliarly applied NBDG continued down the stem and towards the roots. […] FIGS. 11A-11B show bark sections of young trees. […] The distance between the lased leaves and bark segment 1103 was approximately 20 cm.

HLB bacteria = assay: PCR analysis for presence of HLB in leaves of lased and antimicrobial-treated citrus trees; format: in vivo; conditions: 2 fluid ounces per tree, 0-29 = HLB detected, 30 and above = no HLB detected; for Presence of HLB using PCR analysis, Sample A: lased and treated leaves; for Presence of HLB using PCR analysis, Sample B: leaves at furthest point from lased leaves, not lased or treated
Description: The following experimental data is provided to exemplarily illustrate various aspects of the inventive subject matter presented herein. More specifically, the data illustrates the surprising uptake of antimicrobials to effectively treat a plant. Citrus trees were tested in three groups consisting of a control group (trees 1-6), an antimicrobial plus surfactant group (trees 7-12), and an antimicrobial only group (trees 13-18). The trees in each group were lased and, in some instances, treated with an antimicrobial, and analyzed two weeks later to determine the amount of HLB present in the tree using Polymerase Chain Reaction (“PCR”) analysis. It should be noted that all the trees in this experiment had HLB at the beginning of the experiment. The antimicrobial used was oxytetracycline (FireLine™) that includes a surfactant (Tactit) for the antimicrobial plus surfactant group, and oxytetracycline without a surfactant for the antimicrobial only group. The laser parameters included a jump speed of 2000 mm/s, marking speed 850 mm/s, and marking intensity: 70%, and a pulse frequency of 15000 Hz.
The control group (trees 1-6) was lased, but not treated with any antimicrobials and/or surfactants. With the exception of one tree (tree 7) that was only lased, the antimicrobial plus surfactant group was lased and treated with an antimicrobial that comprised a surfactant. With the exception of one tree (tree 13) that was only lased, the antimicrobial only group was lased and treated with only an antimicrobial (with no surfactant). The trees in each group were lased on only one side of the tree (the side comprising the “A” samples). If an antimicrobial (with or without surfactant) was applied, such antimicrobial was applied to the side of the tree that was lased. The antimicrobials were prepared at 200 ppm, 500 ppm, 1000 ppm, 1500 ppm, and 2000 ppm in a 1 gallon volume. Only 2 fluid ounces per tree (10 fluid ounces per group of trees) was used of each concentration for this experiment.
After two weeks, leaves that were lased and, in some instances, treated with an antimicrobial were sampled and analyzed. Additionally, leaves located at the furthest point from the lased leaves (the side comprising the “B” samples), which were not directly lased and/or treated, were sampled and analyzed. Leaves were grinded and prepared for PCR analysis for detecting the presence of HLB. PCR determines if there is live HLB DNA. PCR analysis amplifies and copies small segments of DNA. It then yields enough sample DNA to run the analysis. With this experiment there are six trees per treatment group (control group, antimicrobial plus surfactant group, and antimicrobial only group). Each tree falls under two ranges for determining HLB content, values 29 and lower are considered HLB positive (greening) and values 30 and over are trees considered HLB negative (non-greening). If the analysis takes over 30 PCR cycles then it cannot find any target HLB DNA. If the analysis runs against the maximum of 40 PCR cycles then it becomes indeterminate and it could not find one copy of HLB. It should be noted that there could be numbers over “30” but still be no presence of HLB because there are only artifacts of dead HLB bacteria DNA in numbers over “30”.

[2] = 200 ppm, without surfactant, tree 14, two weeks
[3] = 500 ppm, without surfactant, tree 15, two weeks
[4] = 1000 ppm, without surfactant, tree 16, two weeks
[5] = 2000 ppm, with surfactant (Tactit), tree 12, two weeks

| Compound | Uptake into un-lased control leaf (fluorescence) ([1]; applied to the surface of un-lased leaves) | Time until fluorescence observed in the phloem of bark tissue ([1]; bark approximately 20 cm from the treated lased leaf, young trees) | Time until fluorescence observed within the lateral veins of the lased leaves ([1]; lased citrus leaf, 5 mg/mL, emerging from the application area) | Movement in the leaf four hours after application ([1]; lased citrus leaf, 5 mg/mL, four hours after application) | Uptake into lased leaf (fluorescence) ([1]; lased citrus leaf, 13×39 dot indentation pattern, 5 mg/mL, 5 μL, 10 minutes after application) | Presence of HLB using PCR analysis, Sample A (HLB bacteria; 200 ppm, with surfactant (Tactit), tree 8, two weeks after treatment) | Presence of HLB using PCR analysis, Sample B (HLB bacteria; 200 ppm, with surfactant (Tactit), tree 8, two weeks) | Presence of HLB using PCR analysis, Sample A (HLB bacteria; [2]) | Presence of HLB using PCR analysis, Sample B (HLB bacteria; [2]) | Presence of HLB using PCR analysis, Sample A (HLB bacteria; 500 ppm, with surfactant (Tactit), tree 9, two weeks) | Presence of HLB using PCR analysis, Sample A (HLB bacteria; [3]) | Presence of HLB using PCR analysis, Sample B (HLB bacteria; [3]) | Presence of HLB using PCR analysis, Sample A (HLB bacteria; [4]) | Presence of HLB using PCR analysis, Sample B (HLB bacteria; [4]) | Presence of HLB using PCR analysis, Sample B (HLB bacteria; 1500 ppm, with surfactant (Tactit), tree 11, two weeks) | Presence of HLB using PCR analysis, Sample B (HLB bacteria; 1500 ppm, without surfactant, tree 17, two weeks) | Presence of HLB using PCR analysis, Sample A (HLB bacteria; [5]) | Presence of HLB using PCR analysis, Sample B (HLB bacteria; [5]) | Presence of HLB using PCR analysis, Sample B (HLB bacteria; 2000 ppm, without surfactant, tree 18, two weeks) |
| --- | --- | --- | --- | --- | --- | --- | --- | --- | --- | --- | --- | --- | --- | --- | --- | --- | --- | --- | --- |
| O=[N+]([O-])c1ccc(N[C@H]2C(O)O[C@H](CO)[C@@H](O)[C@@H]2O)c2nonc12 (stereo partly shown) [NBDG] | no fluorescence | ≤ 8 h | ≤ 2 h | reached and passed the base of the petiole | spread of fluorescence within the lased area |  |  |  |  |  |  |  |  |  |  |  |  |  |  |
| CN(C)[C@@H]1C(O)=C(C(N)=O)C(=O)[C@@]2(O)C(O)=C3C(=O)c4c(O)cccc4[C@@](C)(O)[C@H]3[C@H](O)[C@@H]12 [oxytetracycline] |  |  |  |  |  | 30.6 | 33.5 | 27.0 | 26.1 | 35.4 | 34.7 | 26.6 | 37.8 | 28.7 | 36.8 | 26.2 | 37.6 | 36.1 | 27.6 |
